Results reported in EPA's ToxValDB 9.5.
In brackets after ≈: the same amount, converted by molar mass. Several values for one entry are separate records, joined by “and”; a condition that tells them apart may be missing. Equal values may be shown once.

What was measured:
Rattus norvegicus [1] = details: chronic; oral; diet; M/F; kidney toxicity
Rattus norvegicus [2] = details: oral; for NOAEL: chronic, duration: 16 weeks, M; for NOEL: short-term, duration: 28 days, M/F
Homo sapiens = details: clinical
Rattus norvegicus [3] = details: developmental; oral; diet; Fetus: Fetotoxicity
Rattus norvegicus [4] = details: oral
Rattus norvegicus [5] = details: subchronic, M/F
Rattus norvegicus [6] = system: Rattus norvegicus
Oryctolagus sp. = details: acute; dermal; occlusive; New Zealand
Canidae [7] = details: subchronic; duration: 90 days; oral; diet; Beagle
Canidae [8] = details: oral, Beagle
Canidae [9] = details: subchronic; oral; M/F; Dog Other; red blood cell and liver effects
Rattus norvegicus [10] = details: short-term
[11] = chronic, duration: 12 months, capsule, M/F, Decreased bodyweight gains & peripheral redness
[12] = duration: 12 months, capsule, M/F, Decreased bodyweight gains & peripheral redness

OCCO [Ethylene glycol]
LOAEL (Rattus norvegicus [1]): 1000 mg/kg-day
NOEL (Rattus norvegicus [1]): 200 mg/kg-day
NOAEL (Rattus norvegicus [2]; diet, Wistar, Deaths + Body Weight Changes: Mean body weight decrease + Food Consumption: decrease + Water Consumption: increase + Urinalysis: SG decrease…): 150 mg/kg-day
NOAEL (Rattus norvegicus [2]; diet, Wistar, Water Consumption: increase + Urinalysis: SG decrease, VOL increase + Absolute Organ Weight: Kidney increase + Relative Organ Weight: Kidney…): 150 mg/kg-day
NOAEL (Homo sapiens; duration: 30 days, inhalation, M, respiratory): 23 mg/m3
NOEL (Rattus norvegicus [3]): 200 mg/kg-day

CC1(C)C(C=C(Cl)c2ccc(Cl)cc2)C1C(=O)OC(C#N)c1ccc(F)c(Oc2ccccc2)c1 (stereo unspecified) [Flumethrin]
NOAEL (Rattus norvegicus [4]; developmental, Reduced pup survival and bodyweight gain. Maternal toxicity: salivation): 0.37 mg/kg-day

CCCC[C@@H](C)[C@@H](OC(=O)C[C@@H](CC(=O)O)C(=O)O)[C@H](C[C@@H](C)C[C@H](O)CCCC[C@@H](O)C[C@H](O)[C@H](C)N)OC(=O)C[C@@H](CC(=O)O)C(=O)O [Fumonisin B1]
NOEL (Rattus norvegicus [4]; subchronic, duration: 90 days, diet, M/F, Fischer 344, Nephrotoxicity): 0.2 mg/kg-day
NOEL (Rattus norvegicus [2]; diet, Fischer 344, Body Weight Changes: decrease + Blood Chemistry: Crn increase, TP increase, Cho increase, TG increase, ALT increase, ALP increase, AST …): < 99 ppm

N#CCCCCC#N [Hexanedinitrile]
NOAEL (Rattus norvegicus [5]; duration: 13 weeks, inhalation, whole body, Crl:CD(SD), Hematologic): 31 mg/m3
LC50 (Rattus norvegicus [6]; acute, inhalation, Sprague-Dawley): 1.71 µg/mL (≈ 15.8 µM)
LD50 (Rattus norvegicus [6]; acute, oral, gavage, Crl:CD(SD)): 138 mg/kg and 301 mg/kg
NOAEL (Rattus norvegicus [6]; developmental, duration: 14 days, oral, gavage, Sprague-Dawley): > 80 mg/kg-day
LD50 (Oryctolagus sp.): 2130 mg/kg

F [Hydrogen fluoride]
LOAEL (Homo sapiens; duration: 1 hours, inhalation, M, respiratory): 0.409 mg/m3

Cc1c(Cc2cc(C(C)(C)C)c(O)c(C(C)(C)C)c2)c(C)c(Cc2cc(C(C)(C)C)c(O)c(C(C)(C)C)c2)c(C)c1Cc1cc(C(C)(C)C)c(O)c(C(C)(C)C)c1 [Ionox 330]
LD50 (Rattus norvegicus [6]; acute, dermal, semiocclusive): > 2000 mg/kg
LD50 (Rattus norvegicus [6]; acute, injection, intraperitoneal, Sprague-Dawley): > 1000 mg/kg
LD50 (Rattus norvegicus [6]; acute, oral, Carworth 'E' and 'N' strains): > 5000 mg/kg
NOAEL (Rattus norvegicus [6]; subchronic, duration: 90 days, oral, diet): > 960 mg/kg-day
NOAEL (Rattus norvegicus [6]; subchronic, duration: 90 days, oral, diet, albino): 480 mg/kg-day
NOAEL (Canidae [7]): 185 mg/kg-day

c1ccc([C@H]2CN3CCSC3=N2)cc1 [Levamisole]
LOEL (Canidae [8]; immunotoxicology, duration: 14 months, capsule, Re-emergence of haemolytic anaemia): 1.25 mg/kg-day

CC[C@@]1([C@@H]2O[C@@H]([C@H]3O[C@@](O)(CO)[C@H](C)C[C@@H]3C)C[C@@H]2C)CC[C@H]([C@]2(C)CC[C@]3(C[C@H](O)[C@@H](C)[C@@H]([C@@H](C)[C@@H](OC)[C@H](C)C(=O)O)O3)O2)O1 [Monensin]
NOAEL (Rattus norvegicus [4]; chronic, duration: 2 years, diet, M/F, Wistar, Decreased bodyweight gain): 1.14 mg/kg-day

CCOP(=S)(OCC)ON=C(C#N)c1ccccc1 [Phoxim]
NOEL (Canidae [8]; chronic, duration: 2 years, diet, M/F, Liver effects and inhibition of brain acetylcholinesterase activity): 0.38 mg/kg-day
NOEL (Canidae [8]; duration: 2 years, feed, M/F, Liver effects and inhibition of brain acetylcholinesterase activity): 0.38 mg/kg-day
NOEL (Rattus norvegicus [2]; gavage, Slc: Wistar, Clinical Observation: Salivation + Body Weight Changes: decrease + Hematology: Hgb decrease, , Hct decrease, Plt increase, WBC increase + …): < 7.5 mg/kg-day
NOEL (Rattus norvegicus [2]; gavage, Wistar, Clinical Observation: Salivation + Body Weight Changes: Weight gain decrease + Blood Chemistry: TP increase, ALB increase, A/G increasegamma…): < 7.5 mg/kg-day

[I-].[Na+] [Sodium iodide]
NOAEL (Homo sapiens; duration: 14 days, oral, M/F, endocrine): 0.01 mg/kg-day

C=Cc1ccccc1 [Styrene]
NOEL (Rattus norvegicus [4]; chronic, duration: 2 years, drinking water, M/F, Sprague-Dawley, Decreased bodyweight, females): 7.7 mg/kg-day and 14 mg/kg-day
LOAEL (Canidae [9]): 400 mg/kg-day
NOAEL (Canidae [9]): 200 mg/kg-day
LOAEL (Rattus norvegicus [10]; duration: 14 days, oral, gavage, M, Wistar, neurological): 100 mg/kg-day
NOAEL (Homo sapiens; duration: 6 hours, inhalation, M, neurological): 209 mg/m3

O=S=O [Sulfur dioxide]
LOAEL (Homo sapiens; duration: 1 days, inhalation, M/F, respiratory): 0.262 mg/m3

[Tl] [Thallium]
LOAEL (Rattus norvegicus [5]; duration: 90 days, oral, gavage, Sprague-Dawley): 0.04 mg/kg-day

CC[C@H]1OC(=O)C[C@@H](O)[C@H](C)[C@@H](O[C@@H]2O[C@H](C)[C@@H](O)[C@H](N(C)C)[C@H]2O)[C@@H](CCN2C[C@H](C)C[C@H](C)C2)C[C@@H](C)C(=O)/C=C/C(C)=C/[C@@H]1CO[C@@H]1O[C@H](C)[C@@H](O)[C@@H](OC)[C@H]1OC [Tilmicosin]
LOEL (Canidae [8]; [11]): 12 mg/kg-day
NOEL (Canidae [8]; [11]): 4 mg/kg-day
LOEL (Canidae [8]; [12]): 12 mg/kg-day
NOEL (Canidae [8]; [12]): 4 mg/kg-day

[V] [Vanadium]
LOAEL (Rattus norvegicus [10]; duration: 16 days, inhalation, F, Fischer 344, respiratory): 0.56 mg/m3
NOAEL (Homo sapiens; duration: 12 weeks, oral, capsule, M/F, hematological): 0.12 mg/kg-day
